For the assay, the target named is T1, GBA (glucosylceramidase, GCase), L444P GBA mutation (Homo sapiens, UniProt P04062, L483P).
T1 construct: Human fibroblast cell line GM10915 harboring the L444P GBA mutation was obtained from Coriell Biorepositories; host or cells: GM10915 human fibroblasts
T1 sequence (P04062 40-536 L483P): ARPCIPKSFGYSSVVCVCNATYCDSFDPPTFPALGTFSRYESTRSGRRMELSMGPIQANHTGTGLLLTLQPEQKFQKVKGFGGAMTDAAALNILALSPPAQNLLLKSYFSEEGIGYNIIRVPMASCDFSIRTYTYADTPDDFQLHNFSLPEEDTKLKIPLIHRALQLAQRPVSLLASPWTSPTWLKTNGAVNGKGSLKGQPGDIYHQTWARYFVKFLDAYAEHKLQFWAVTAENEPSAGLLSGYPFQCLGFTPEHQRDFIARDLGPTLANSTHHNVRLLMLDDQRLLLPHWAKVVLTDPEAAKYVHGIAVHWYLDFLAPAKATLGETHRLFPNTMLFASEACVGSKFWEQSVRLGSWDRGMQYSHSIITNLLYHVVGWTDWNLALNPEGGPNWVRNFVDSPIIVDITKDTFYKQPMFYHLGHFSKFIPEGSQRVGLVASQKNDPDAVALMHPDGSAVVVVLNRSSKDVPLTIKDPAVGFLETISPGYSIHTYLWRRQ
The experiment in a line: GCase activity assay (4-MUG) in GM10915 fibroblasts, normalised to crystal violet staining. It counts as cell-based. The note with it: five days exposure; for GBA EC1.5: concentration where Percent GCase activity = 150% (1.5-fold induction), human fibroblast cell line GM10915 (L444P GBA), 8-point dose range; for Emax: maximum Percent GCase activity in the dose range tested, relative to basal activity of untreated cells, GM10915 (L444P GBA). The procedure:
Human fibroblast cell line GM10915 harboring the L444P GBA mutation was obtained from Coriell Biorepositories.
The GM10915 cell line was cultured under standard cell culture conditions (37° C. and 5% CO2) in complete DMEM medium supplemented with nonessential amino acids (NEAA), 1% Pen-Strep and 12% FCS. Cells were seeded at a density of 10^4 cells/well in 100 μL complete medium in one black 96-well plate for glucosylceramidase (GCase) activity measurement and in one clear 96-well plate for crystal violet staining to correct for cell density. Crystal violet staining is performed to obtain quantitative information about the relative density of cells adhering to multi-wells plates.
The assay was adapted from Sawkar et al (2002) and briefly described in the following. The day after seeding of cells, the medium was replaced with fresh medium containing the compounds to be tested. Compounds were tested in duplicate and in an 8-point diluted dose range to obtain a dose response. Cells were exposed with compounds for five days. Fresh compound was added every 2-3 days. PBS was included to define the basal level of GCase activity.
Cells were washed three times with 200 μL PBS per well and 50 μL of 2.5 mM 4-MUG buffer (4-MUG dissolved in 0.2 M acetate buffer pH 4.0) was added and the cells were incubated at 37° C., 5% CO2 for 23 hours. The reaction was stopped by adding 150 μL 0.2 M glycine buffer (pH 10.8). Fluorescence was measured with a Varioskan® Flash reader (Thermo Scientific) at an excitation/emission setting of 365/445 nm.
Cells were treated with compounds in a parallel setup identical to the setup to test for GCase activity. At the end of compound treatment, cells were washed once with 200 μL PBS per well and 50 μL 0.1% w/v crystal violet (in H20) was added. Following 10 min. of incubation, the crystal violet solution was removed, and the cells were washed three times with 200 μL PBS and 100 μL 1% SDS was added to solubilize the stain.
The plate was agitated on an orbital shaker for 10-30 min. Absorbance (A) is measured at […] using a Varioskan® Flash reader (Thermo Scientific).
The fluorescence signal (F) derived from the GCase measurement is normalized to the absorbance signal (A) derived from the crystal violet staining. The percent GCase activity resulting from compound treatment is calculated relative to the basal activity obtained from untreated cells.
Maximal effect of compounds (E max) is determined from the dose response effects as the maximum “Percent GCase activity” achieved in the dose range tested.

By Emax is commonly meant the greatest response seen or fitted, relative to the assay's reference. As to `c1cc(C2CCCNC2)ncc1CN1CCCCC1` (stereo not shown) [compound 811], the “GBA EC1.5” value amounted to 3.4 µM and the Emax amounted to 263%.
Turning to `COc1ncc(C2CCN(C)C2)cc1CN1CCCCC1` (stereo not shown) [compound 812], the “GBA EC1.5” value amounted to 6.7 µM and the Emax was found to be 255%.
As for `c1nc(CN2CCCCC2)cc(C2CCNC2)n1` (stereo not shown) [compound 832], the “GBA EC1.5” value was found to be 18.0 µM and the Emax is 175%.
With `c1cc2c(CN3CCCCC3)c[nH]c2nc1C1CCCNC1` (stereo not shown) [compound 833], the “GBA EC1.5” value worked out at 12.1 µM and the Emax was found to be 203%.
In the case of `c1nc2cnc(C3CCNCC3)cn2c1CN1CCCCC1` [compound 841], the “GBA EC1.5” value came out at 35.9 µM and the Emax was found to be 181%.
In the case of `Fc1c(CN2CCCCC2)ccnc1C1CCNCC1` [compound 846], the “GBA EC1.5” value was 2.8 µM and the Emax is 245%.
For `c1cc2ncc(CN3CCCCC3)n2cc1C1CCNCC1` [compound 853], the “GBA EC1.5” value amounted to 8.0 µM and the Emax is 193%.
As to `c1cn2cc(CN3CCCCC3)nc2cc1C1CCNCC1` [compound 854], the “GBA EC1.5” value is 9.4 µM and the Emax was found to be 194%.
On the same counts, the results for `c1cc(C2CCNCC2)nnc1CN1CCCCC1` [compound 855] are 43.3 µM and 163%.
As to `c1nc2cc(CN3CCCCC3)oc2cc1C1CCNCC1` [compound 868], the “GBA EC1.5” value came out at 6.5 µM and the Emax is 204%.
Consider `Fc1cc(C2CCNCC2)cnc1CN1CCCCC1` [compound 880], for which the “GBA EC1.5” value came to 4.3 µM and the Emax came to 237%.
